{"source": "PubChem BioAssay (NCI)", "test_in_all_cases": "inhibition of tumour cell growth, NCI panel, 48 h", "key": {"HCT-116 colon": {"tested_on": "HCT-116 colon"}, "NCI-H226 lung": {"tested_on": "NCI-H226 lung"}, "M14 melanoma": {"tested_on": "M14 melanoma"}, "MALME-3M melanoma": {"tested_on": "MALME-3M melanoma"}, "UACC-62 melanoma": {"tested_on": "UACC-62 melanoma"}, "TK-10 renal": {"tested_on": "TK-10 renal"}, "OVCAR-3 ovarian": {"tested_on": "OVCAR-3 ovarian"}, "HL-60(TB) leukemia": {"tested_on": "HL-60(TB) leukemia"}, "CCRF-CEM leukemia": {"tested_on": "CCRF-CEM leukemia"}, "U251 CNS": {"tested_on": "U251 CNS"}, "RPMI-8226 leukemia": {"tested_on": "RPMI-8226 leukemia"}, "HOP-62 NSCLC": {"tested_on": "HOP-62 NSCLC"}, "MDA-MB-435": {"tested_on": "MDA-MB-435"}, "MDA-MB-231 breast": {"tested_on": "MDA-MB-231 breast"}, "PC-3 prostate": {"tested_on": "PC-3 prostate"}, "MOLT-4 leukemia": {"tested_on": "MOLT-4 leukemia"}, "EKVX NSCLC": {"tested_on": "EKVX NSCLC"}, "COLO 205 colon": {"tested_on": "COLO 205 colon"}, "A498 renal": {"tested_on": "A498 renal"}, "SF-295 CNS": {"tested_on": "SF-295 CNS"}, "ACHN renal": {"tested_on": "ACHN renal"}, "CAKI-1 renal": {"tested_on": "CAKI-1 renal"}, "HOP-92 NSCLC": {"tested_on": "HOP-92 NSCLC"}, "SF-268 CNS": {"tested_on": "SF-268 CNS"}, "OVCAR-8 ovarian": {"tested_on": "OVCAR-8 ovarian"}, "K-562 leukemia": {"tested_on": "K-562 leukemia"}, "T-47D breast": {"tested_on": "T-47D breast"}, "NCI-H23 lung": {"tested_on": "NCI-H23 lung"}}, "note": "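Method: 48-hour compound exposure of cells in 96-well plates, five concentrations, linear interpolation of endpoints. GI50 = concentration required for 50% inhibition of growth. TGI: total growth inhibition.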", "data": [{"smiles": "C(=N\\Nc1ccc2ccccc2n1)/c1ccccn1", "values": [{"measurement": "GI50", "setting": "HCT-116 colon", "value": 368, "unit": "nM"}, {"measurement": "TGI", "setting": "HCT-116 colon", "value": 13900, "unit": "nM"}, {"measurement": "GI50", "setting": "NCI-H226 lung", "value": 508, "unit": "nM"}, {"measurement": "TGI", "setting": "NCI-H226 lung", "value": 19000, "unit": "nM"}, {"measurement": "GI50", "setting": "M14 melanoma", "value": 565, "unit": "nM"}, {"measurement": "TGI", "setting": "M14 melanoma", "value": 3450, "unit": "nM"}, {"measurement": "GI50", "setting": "MALME-3M melanoma", "value": 1350, "unit": "nM"}, {"measurement": "TGI", "setting": "MALME-3M melanoma", "value": 8340, "unit": "nM"}, {"measurement": "GI50", "setting": "UACC-62 melanoma", "value": 877, "unit": "nM"}, {"measurement": "TGI", "setting": "UACC-62 melanoma", "value": 5540, "unit": "nM"}, {"measurement": "GI50", "setting": "TK-10 renal", "value": 375, "unit": "nM"}, {"measurement": "TGI", "setting": "TK-10 renal", "value": "> 100000", "unit": "nM"}, {"measurement": "GI50", "setting": "OVCAR-3 ovarian", "value": 351, "unit": "nM"}, {"measurement": "GI50", "setting": "HL-60(TB) leukemia", "value": 279, "unit": "nM"}, {"measurement": "TGI", "setting": "HL-60(TB) leukemia", "value": 2300, "unit": "nM"}, {"measurement": "GI50", "setting": "CCRF-CEM leukemia", "value": 371, "unit": "nM"}, {"measurement": "TGI", "setting": "CCRF-CEM leukemia", "value": "> 100000", "unit": "nM"}, {"measurement": "GI50", "setting": "U251 CNS", "value": 413, "unit": "nM"}, {"measurement": "TGI", "setting": "U251 CNS", "value": "> 55000", "unit": "nM"}, {"measurement": "GI50", "setting": "RPMI-8226 leukemia", "value": 513, "unit": "nM"}, {"measurement": "TGI", "setting": "RPMI-8226 leukemia", "value": 15700, "unit": "nM"}, {"measurement": "GI50", "setting": "HOP-62 NSCLC", "value": 431, "unit": "nM"}, {"measurement": "TGI", "setting": "HOP-62 NSCLC", "value": 6980, "unit": "nM"}, {"measurement": "GI50", "setting": "MDA-MB-435", "value": 1010, "unit": "nM"}, {"measurement": "TGI", "setting": "MDA-MB-435", "value": "> 52700", "unit": "nM"}, {"measurement": "GI50", "setting": "MDA-MB-231 breast", "value": 695, "unit": "nM"}, {"measurement": "TGI", "setting": "MDA-MB-231 breast", "value": "> 100000", "unit": "nM"}, {"measurement": "GI50", "setting": "PC-3 prostate", "value": 825, "unit": "nM"}, {"measurement": "TGI", "setting": "PC-3 prostate", "value": 73000, "unit": "nM"}, {"measurement": "GI50", "setting": "MOLT-4 leukemia", "value": 353, "unit": "nM"}, {"measurement": "TGI", "setting": "MOLT-4 leukemia", "value": "> 21800", "unit": "nM"}, {"measurement": "GI50", "setting": "EKVX NSCLC", "value": 370, "unit": "nM"}, {"measurement": "TGI", "setting": "EKVX NSCLC", "value": "> 32900", "unit": "nM"}, {"measurement": "GI50", "setting": "COLO 205 colon", "value": 410, "unit": "nM"}, {"measurement": "TGI", "setting": "COLO 205 colon", "value": 8960, "unit": "nM"}, {"measurement": "GI50", "setting": "A498 renal", "value": 561, "unit": "nM"}, {"measurement": "TGI", "setting": "A498 renal", "value": 15400, "unit": "nM"}, {"measurement": "GI50", "setting": "SF-295 CNS", "value": 348, "unit": "nM"}, {"measurement": "TGI", "setting": "SF-295 CNS", "value": 12900, "unit": "nM"}, {"measurement": "GI50", "setting": "ACHN renal", "value": 367, "unit": "nM"}, {"measurement": "TGI", "setting": "ACHN renal", "value": "> 43900", "unit": "nM"}, {"measurement": "GI50", "setting": "CAKI-1 renal", "value": 257, "unit": "nM"}, {"measurement": "TGI", "setting": "CAKI-1 renal", "value": 763, "unit": "nM"}, {"measurement": "GI50", "setting": "HOP-92 NSCLC", "value": 816, "unit": "nM"}, {"measurement": "TGI", "setting": "HOP-92 NSCLC", "value": 32800, "unit": "nM"}, {"measurement": "GI50", "setting": "SF-268 CNS", "value": 410, "unit": "nM"}, {"measurement": "TGI", "setting": "SF-268 CNS", "value": "> 33500", "unit": "nM"}, {"measurement": "GI50", "setting": "OVCAR-8 ovarian", "value": 463, "unit": "nM"}, {"measurement": "TGI", "setting": "OVCAR-8 ovarian", "value": "> 100000", "unit": "nM"}, {"measurement": "GI50", "setting": "K-562 leukemia", "value": 487, "unit": "nM"}, {"measurement": "TGI", "setting": "K-562 leukemia", "value": "> 39100", "unit": "nM"}, {"measurement": "GI50", "setting": "T-47D breast", "value": 574, "unit": "nM"}, {"measurement": "TGI", "setting": "T-47D breast", "value": 38500, "unit": "nM"}, {"measurement": "GI50", "setting": "NCI-H23 lung", "value": 857, "unit": "nM"}, {"measurement": "TGI", "setting": "NCI-H23 lung", "value": "> 100000", "unit": "nM"}]}]}
